Where two headings read alike, the source gives them in different places.
Assays:
[1] = system: bioprinted construct BB21-001; test: LDH release (LDH-Glo) cytotoxicity in bioprinted breast cancer construct; format: cell-based, human; conditions: 0.2 and 1 μM doxorubicin, 72 h time-point
Description: The 15-day old bioprinted constructs were treated with 0.2 and 1 μM Doxorubicin (Doxo). Medium samples were collected at 24, 48 and 72 h time points to assess the Lactate Dehydrogenase (LDH) release, which is a marker of cytotoxicity. LDH-Glo assay was used. Data are presented as means±SD, n=3.
Cytotoxicity of doxorubicin was also assessed by LDH release detection.

[2] = system: bioprinted construct BB21-001 (MDA-MB-231, hMAds, CAF, BCSC); test: Doxorubicin treatment of single-cell bioprinted breast cancer construct, RealTime-Glo MT viability; format: cell-based, human
Description: The 15-day old bioprinted constructs were treated with 0.2 and 1 μM Doxorubicin (Doxo) for 72 h. Cell viability was assessed using RealTime-Glo MT before treatment (day 0) and after 72 h of treatment. To assess the doxorubicin effects after 72 h, a percentage of day 0 viability was calculated for each construct. Statistically significant differences were determined using one-way ANOVA with Tukey's post-hoc test, and indicated as follows: *** p≤0.001, **** p≤0.0001, ns—not significant.
Each cell line (MDA-MB-231, hMAds, CAF and BCSC) was harvested, counted and then the required number of cells was transferred into a 15 ml Falcone tube. The cells were spun down then resuspended into 20 μL of complete 3D Tumorsphere Medium XF (obtained from PromCell®) and loaded into a syringe preloaded with 200 μL of Laminink 411 (cells corresponded to 10% of the bioink volume). Then mixed for 550 times. The homogeneous mixture was transferred to a syringe and then set to bioprint (the extrusion volume of each bioprint being set to 3 uL (approximately 50000 cells per droplet).

[3] = system: MDA-MB-231 triple negative breast cancer cells; test: Doxorubicin dose-response in 2D cell culture; conditions: for cell viability (in comparison to an untreated control sample): 2D cell culture
Description: The MDA-MB-231 cells were cultured in Leibovitz's L-15 Medium (ATCC®) and fetal bovine serum was added to a final concentration of 10%, and in accordance with the general procedure outlined in MDA-MB-231 (HTB-26™) Product sheet from ATCC® (https://www.atcc.org/products/htb-26).
Cells were exposed to a range of doxorubicin concentrations for 72 hours and sensitivity to this drug was evaluated by determining a concentration that kills 50% of the cells (IC50).

[4] = system: U-87 MG glioblastoma cell line; test: Cisplatin dose-response in 2D culture, CellTiter-Glo viability; format: cell-based
Description: (§1) Cell cultures were exposed to the indicated cisplatin concentrations for 72 h. Cell viability was then assessed using the luminescence-based CellTiter-Glo Assay. Data are presented as means±SEM (n≥2). For 2D cell cultures and 3D tumorspheres FIGS. 7A and 7B) dose-response curves were fitted (nonlinear regression) to calculate the IC50 values (see: Table 1 in the examples section). In the 3D bioprint experiment (FIG. 7B) statistically significant difference between untreated control and cisplatin treatment was determined using an unpaired t-test (**** p≤0.0001).
(§2) Both cell lines were deemed sensitive to cisplatin, however, higher drug doses were required to initiate death of cancer stem cells.

[5] = system: glioblastoma cancer stem cells (GBM CSC); test: as above; format: cell-based
Description: as §1, §2

[6] = system: 3D GBM bioprints (example B21_012); test: Cisplatin treatment of 3D GBM bioprinted constructs, CellTiter-Glo viability; format: cell-based, human
Description: as §1
Bioprinted constructs were treated with 50, 100, 200, or 400 μM cisplatin (CDDP) for 72 h. Viability was assessed using CellTiter-Glo assay.
Tumorspheres, obtained from a coculture of U87MG (60%), microglia HMC3 (28%), GBM-CAF (10%) and GBM-CSC (2%) after 14 days in 5×96-well round bottom low adhesion plates, were harvested by sedimenting in Falcon tube then transferred into a 1 ml syringe. The culture medium was eliminated by gravitation. The total volume of tumorsphere pellet was 50 μL. 270 μL of bioink Cellink Laminink 411 were transferred into another 1 ml syringe; a connector was used to link both syringes. Mixing the bioink and tumorspheres was done by pushes from one side to another. The homogenous mixture tumorspheres-bioink (˜320 μL) was transferred in 3 ml syringe preloaded with 1 mL start ink. […]

[7] = system: 3D GBM tumorspheres (spheroids) from coculture of U-87 MG, GBM CSC, GBM CAF and microglia (HMC3); test: Cisplatin dose-response in 3D GBM tumorspheres, CellTiter-Glo viability; format: cell-based
Description: as §1
In the next step, response to cisplatin was tested in 3D GBM spheroids (see FIG. 7B). […] Nevertheless, cisplatin was effective in 3D GBM tumourspheres (spheroids) as well.

IC50 ([3]; 2D culture, 72 hours) | SMILES | LDH release (cytotoxicity) [1] | effect on cell viability ([2]; 1.0 μM doxorubicin) | viability at 0.2 µM ([2]; Homo sapiens, MDA-MB-231, 0.2 μM doxorubicin, 72 h, 15-day old construct, read-out: cell viability (in comparison to an untreated control sample)) | viability at 1 µM ([2]; Homo sapiens, MDA-MB-231, 1.0 μM doxorubicin, 72 h, 15-day old construct, read-out: cell viability (in comparison to an untreated control sample)) | cell viability (in comparison to an untreated control sample) ([3]; 0.2 μM doxorubicin) | cell viability (in comparison to an untreated control sample) ([3]; 1.0 μM doxorubicin) | IC50 ([4]; 2D U-87 MG, 72 h, read-out: Cisplatin IC50 (Mean ± SEM)) | sensitivity to cisplatin ([4]; 2D culture, 72 hours) | IC50 ([5]; 2D GBM CSC, 72 h, read-out: Cisplatin IC50 (Mean ± SEM)) | sensitivity to cisplatin ([5]; 2D culture, 72 hours, higher doses required than for U-87 MG) | IC50 ([6]; 3D Bioprinted tumour, 72 h, read-out: Cisplatin IC50) | IC50 ([6]; printed construct, read-out: IC50 value) | effectiveness of cisplatin ([7]; 3D GBM tumourspheres) | IC50 ([7]; 3D spheroids (tumourspheres))
0.08 ± 0.02 µM | COc1cccc2c1C(=O)c1c(O)c3c(c(O)c1C2=O)C[C@@](O)(C(=O)CO)C[C@@H]3O[C@H]1C[C@H](N)[C@H](O)[C@H](C)O1 [doxorubicin, Doxorubicin] | increasing trend | significantly reduces cell viability | ~84% | ~35% | ~40% | <14% |  |  |  |  |  |  |  | 
 | N.N.[Cl][Pt][Cl] [Cisplatin] |  |  |  |  |  |  | 12.9 ± 2.5 µM | sensitive | 20.1 ± 3.5 µM | sensitive | > 200 µM | > 200 µM | effective | 111 µM

Reference: patent publication US20240392254A1, “CANCER MICROENVIRONMENT” (CARCINOTECH LTD, priority 2021, published 2024)
